One data set can be described thus: solubility test. The format is physicochemical. The note with it: for aspect of solution after cooling: 100 mM solution; for aspect of solution after heating: 100 mM solutions (5 mg in 50 µl); for solubility: buffers at pH 3, 7, and 12 (10 mM) and pure water. The procedure: The isoelectric point (calculated on http://web.expasy.org/compute-pi/) of SDSYGAP (SEQ ID no. 6), comparative, and an oligopeptide according to the present invention, i.e., SDS-Y(3,5 Br)-GAP is 3.8. Three buffers at pH 3, 7, and 12 (10 mM concentration) and pure water were used as solvent for the two oligopeptides.

Data set [1] in a line: Dynamic Light Scattering aging study (autocorrelation lag time). The format is physicochemical. The note with it: 10 mM in water. How it is done: Dynamic Light Scattering measurements were performed on an ALV/CGS-3 Platform-based Goniometer System equipped with an ALV-7004 correlator and an ALV/CGS-3 goniometer. The signal was detected by an ALV-Static and Dynamic Enhancer detection unit. The light source was the second harmonic of a diode-pumped Coherent Innova Nd:YAG laser (λ = 532 nm), linearly polarized in the vertical direction. Measurements were performed at 25°C. Approximately 1 ml of sample solution was transferred into the cylindrical Hellma scattering cell.
The dynamic information on structures present in the peptide solutions were derived from the normalized autocorrelation function g2 (q, τ) of the scattered intensity, which is measured according to g2 (q, τ) = (〈I(q, t)I(q,t+τ)〉)/((〈I(q, t)〉)^2) [formula] where q is the scattering vector, τ is the relaxation time and I is the scattered intensity. Higher relaxation times correspond to larger self-assembled structures. […] Results are reported in Figure 7, as graphs showing the autocorrelation functions of wild type (panel A) or halogenated (panel B) oligopeptide 10 mM in water at 90°C. The autocorrelation functions at 90°C show increasing Lag Time, i.e., increasing dimensions of the self-assembled structures, over time. Table 1 summarizes and compares the results, showing that halogenated oligopeptide form bigger structures compared to the wild type one. This is a further indication that bromine atoms play a role in the aggregation behavior of the peptide sequence. The same aging study was performed in buffer at pH 7, with similar results (data not shown).

Data set [2] relates to HeLa (Human cervical cancer cells). The data set can be described thus: CellTiter-Glo Luminescent Cell Viability Assay. The class given is cell-based. The conditions noted are these: 24 hours incubation. The procedure:
HeLa (Human cervical cancer cells) were grown in DMEM supplemented with 1 mM sodium pyruvate, 10 mM HEPES buffer, 100 U/mL penicillin, 0.1 mg/mL streptomycin, 2 mM glutamine and 10% FBS (hereafter referred to as complete medium), at 37°C in a 5% CO2 humidified atmosphere. Cells were splitted the day before seeding and used within eight passages. The cells were seeded at a density of 7000 cell/cm^2. For evaluating cell viability, the day after the seeding the cell medium was replaced with medium containing the wild type or the halogenated oligopeptides and cells were incubated for 24 hours.

The subject of data set [3] is Pseudokirchneriella sub capitata. How it is done: An ecotoxicity test on Pseudokirchneriella sub capitata was performed to evaluate I% (inhibition percentage effect) and IC50 (concentration which determines the 50% inhibition of growth on the population) of the halogenated peptide SDS-Y(3,5 Br)-GAP.
The halogenated peptide SDS-Y(3,5 Br)-GAP was dissolved in water at 100 mg/l and tested at the following concentrations: 50 mg/l, 25 mg/l, 12.5 mg/l and 6.25 mg/l. Each sample was tested in triplicate.
After 72 hours of incubation with the sample or controls, a spectrophotometric test was performed at 670nm as a measure of cell density.

Here are results for two compounds from patent EP3724209B1, “ELASTOMERIC PEPTIDE” (Politecnico di Milano, priority 2017, dated 2019).

Where a SMILES comes first, the peptide text is derived from it. Where no end group is shown, it is not given here. [ ]: non-standard residue; d: D form. Tyr(3,5-Br2) = N[C@@H](Cc1cc(Br)c(O)c(Br)c1)C(=O)O

Take SDSYGAP [SDSYGAP]: the “aspect of solution after cooling” value in “solubility test” is listed as “still clear”. Besides, the “aspect of solution after heating” value in the data set “solubility test” is “completely clear”. Besides, in “solubility test”, the solubility entry is recorded as “good solubility properties in all the tested conditions”. The Lag time was 1.512 ms in data set [1] (aging time t=0), 3.826 ms in data set [1] (aging time t=1 week), 2.859 ms in data set [1] (aging time t=24 h) and 1.919 ms in data set [1] (aging time t=48 h). Further, in data set [2], the cell viability result was “not toxic even at high concentrations”.

Take `C[C@H](NC(=O)CNC(=O)[C@H](Cc1cc(Br)c(O)c(Br)c1)NC(=O)[C@H](CO)NC(=O)[C@H](CC(=O)O)NC(=O)[C@@H](N)CO)C(=O)N1CCC[C@H]1C(=O)O` [SDS-Y(3,5 Br)-GAP] (H-SDS[Tyr(3,5-Br2)]GAP-OH): in the data set “solubility test”, the “aspect of solution after cooling” value is reported as “milky”, the “aspect of solution after heating” value is listed as “completely clear” and the solubility result is given as “good solubility properties in all the tested conditions”. Moreover, the cell viability result in data set [2] is “not toxic even at high concentrations”. Moreover, the ecotoxicity result in data set [3] is recorded as “not ecotoxic”. Moreover, in data set [3] (72 hours of incubation), the “IC50 (concentration which determines the 50% inhibition of growth on the population)” value is 54 µg/mL.
